# According to ChEMBL document CHEMBL2434942, “β-Ionone derived chalcones as potent antiproliferative agents” (Eur J Med Chem, 2013):
# The source made the active and inactive calls. The calls are words filed in the database; no cut-off is given here.
# What was measured:
# [1] = Cytotoxicity against human Hep cells after 48 hrs by SRB assay; type: functional, cell-based
# [2] = system: IMR-32; test: Cytotoxicity against human IMR32 cells after 48 hrs by SRB assay; type: functional, cell-based; conditions: IMR-32, 48 h
# [3] = system: HeLa; test: Cytotoxicity against human HeLa cells after 48 hrs by SRB assay; type: functional, cell-based
# [4] = system: PC-3; test: Cytotoxicity against human PC3 cells after 48 hrs by SRB assay; type: functional, cell-based; conditions: PC-3, 48 h
# [5] = system: MCF7; test: Cytotoxicity against human MCF7 cells after 48 hrs by SRB assay; type: functional, cell-based; conditions: MCF7, 48 h
# [6] = system: CHO; test: Induction of apoptosis in CHO cells assessed as early apoptotic cells at 10 uM after 12 hrs using Annexin V/PI staining by flow cytometry (reference value: 4.3%); type: functional, Cricetulus griseus
# [7] = system: CHO; test: Cell cycle arrest in CHO cells assessed as accumulation at sub-G0 phase at 10 uM after 12 hrs using propidium iodide staining by FACS analysis (reference value: 19.8%); type: functional, Cricetulus griseus
# [8] = system: CHO; test: Induction of apoptosis in CHO cells assessed as viable cells at 10 uM after 12 hrs using Annexin V/PI staining by flow cytometry (reference value: 91.8%); type: functional; conditions: Cricetulus griseus, read-out: Activity
# [9] = system: CHO; test: Induction of apoptosis in CHO cells assessed as late apoptotic cells at 10 uM after 12 hrs using Annexin V/PI staining by flow cytometry (reference value: 1%); type: functional, Cricetulus griseus
# [10] = system: CHO; test: Induction of apoptosis in CHO cells assessed as necrotic cells at 10 uM after 12 hrs using Annexin V/PI staining by flow cytometry (reference value: 3%); type: functional, Cricetulus griseus
# [11] = system: CHO; test: Cytotoxicity against CHO cells after 48 hrs by SRB assay; type: functional, cell-based; conditions: Cricetulus griseus
# [12] = system: CHO; test: Cell cycle arrest in CHO cells assessed as accumulation at sub-G0 phase at 15 uM after 12 hrs using propidium iodide staining by FACS analysis (reference value: 19.8%); type: functional, Cricetulus griseus
# [13] = system: CHO; test: Induction of apoptosis in CHO cells assessed as necrotic cells at 5 uM after 12 hrs using Annexin V/PI staining by flow cytometry (reference value: 3%); type: functional, Cricetulus griseus
# [14] = system: CHO; test: Cell cycle arrest in CHO cells assessed as accumulation at sub-G0 phase at 5 uM after 12 hrs using propidium iodide staining by FACS analysis (reference value: 19.8%); type: functional, Cricetulus griseus
# [15] = system: CHO; test: Induction of apoptosis in CHO cells assessed as cell shrinkage, membrane blebbing and formation of apoptotic body at 5 to 15 uM after 24 hrs by inverted light microscopic analysis; type: functional, cell-based; conditions: Cricetulus griseus
# [16] = system: CHO; test: Induction of apoptosis in CHO cells assessed as early apoptotic cells at 15 uM after 12 hrs using Annexin V/PI staining by flow cytometry (reference value: 4.3%); type: functional, Cricetulus griseus
# [17] = system: CHO; test: Induction of apoptosis in CHO cells assessed as early apoptotic cells at 5 uM after 12 hrs using Annexin V/PI staining by flow cytometry (reference value: 4.3%); type: functional, Cricetulus griseus
# [18] = system: CHO; test: Induction of apoptosis in CHO cells assessed as late apoptotic cells at 15 uM after 12 hrs using Annexin V/PI staining by flow cytometry (reference value: 1%); type: functional, Cricetulus griseus
# [19] = system: CHO; test: Induction of apoptosis in CHO cells assessed as viable cells at 5 uM after 12 hrs using Annexin V/PI staining by flow cytometry (reference value: 91.8%); type: functional; conditions: Cricetulus griseus, read-out: Activity
# [20] = system: CHO; test: Induction of apoptosis in CHO cells assessed as late apoptotic cells at 5 uM after 12 hrs using Annexin V/PI staining by flow cytometry (reference value: 1%); type: functional, Cricetulus griseus
# [21] = system: CHO; test: Induction of apoptosis in CHO cells assessed as cell shrinkage, membrane blebbing and formation of apoptotic body at 5 to 15 uM after 6 to 12 hrs by inverted light microscopic analysis; type: functional, cell-based; conditions: Cricetulus griseus
# [22] = system: CHO; test: Induction of apoptosis in CHO cells assessed as viable cells at 15 uM after 12 hrs using Annexin V/PI staining by flow cytometry (reference value: 91.8%); type: functional; conditions: Cricetulus griseus, read-out: Activity
# [23] = system: CHO; test: Induction of apoptosis in CHO cells assessed as necrotic cells at 15 uM after 12 hrs using Annexin V/PI staining by flow cytometry (reference value: 3%); type: functional, Cricetulus griseus
Structure (SMILES),IC50 [1] [µM],IC50 [2] [µM],IC50 [3] [µM],IC50 [4] [µM],IC50 [5] [µM],other results
CC1=C(/C=C/C(=O)/C=C/c2ccc(C)cc2)C(C)(C)CCC1,44.1,19.2,20.4,21.5,23.8,–
CC1=C(/C=C/C(=O)/C=C/c2ccccc2[N+](=O)[O-])C(C)(C)CCC1,44.9,13.5,36.1,9.5,10.1,–
CO[C@@]12[C@H](COC(N)=O)C3=C(C(=O)C(C)=C(N)C3=O)N1C[C@@H]1N[C@@H]12 [MITOMYCIN],–,–,2,–,–,–
CC1=C(/C=C/C(=O)/C=C/c2ccc(F)cc2)C(C)(C)CCC1,55.8,7.4,32.2,8.2,6.2,–
COc1cc(/C=C/C(=O)/C=C/C2=C(C)CCCC2(C)C)cc(OC)c1OC,45.5,55.5,73.2,32.6,18.7,–
CC1=C(/C=C/C(=O)/C=C/c2ccccc2F)C(C)(C)CCC1,23.6,15.6,41.9,3.4,11,–
CC1=C(/C=C/C(=O)/C=C/c2ccc(Cl)cc2)C(C)(C)CCC1,90.6,52.3,33.2,9.5,10.2,–
CC[C@@]1(O)C(=O)OCc2c1cc1n(c2=O)Cc2cc3ccccc3nc2-1 [CAMPTOTHECIN],–,–,–,–,–,Activity [6]: 1.2%; Activity [7]: 50.5%; viability at 10 µM [8]: 74.8%; Activity [9]: 2.4%; Activity [10]: 21.6%
COc1ccccc1/C=C/C=C/C(=O)/C=C/C1=C(C)CCCC1(C)C,65.3,72.4,33.5,25.3,55.4,–
CC1=C(/C=C/C(=O)/C=C/c2cccnc2)C(C)(C)CCC1,45.6,25.3,17.4,10.2,15.5,–
CC1=C(/C=C/C(=O)/C=C/c2ccc([N+](=O)[O-])cc2)C(C)(C)CCC1,55.5,3.2,28.7,1.9,5.5,Activity [11]: Dose-dependent effect; IC50 [11]: 10 µM; Activity [12]: 48.1%; Activity [6]: 1.4%; Activity [7]: 36%; Activity [13]: 19.4%; Activity [14]: 30.5%; Activity [15]: Active; Activity [16]: 1.1%; Activity [17]: 0.8%; Activity [18]: 7.5%; viability at 5 µM [19]: 74.7%; viability at 10 µM [8]: 59.5%; Activity [9]: 5.8%; Activity [20]: 5.1%; Activity [21]: Active; viability at 15 µM [22]: 52.3%; Activity [10]: 33.3%; Activity [23]: 39.1%
COc1ccccc1/C=C/C(=O)/C=C/C1=C(C)CCCC1(C)C,38.9,19.2,88.2,14.2,13.4,–
COc1ccc(/C=C/C(=O)/C=C/C2=C(C)CCCC2(C)C)cc1,> 100,23.9,15.7,58.7,19.6,–
CC1=C(/C=C/C(=O)/C=C/c2ccccc2Br)C(C)(C)CCC1,16.3,16.3,57.9,11.4,20.7,–
CC1=C(/C=C/C(=O)/C=C/c2cccc3ccccc23)C(C)(C)CCC1,> 100,43.8,65.4,56.4,53.2,–
CC1=C(/C=C/C(=O)/C=C/c2ccc(Cl)c(Cl)c2)C(C)(C)CCC1,> 100,72.4,> 100,35.5,53.5,–
CC1=C(/C=C/C(=O)/C=C/c2ccc(Br)cc2)C(C)(C)CCC1,34.5,10.4,88.8,18.9,20.1,–
CC1=C(/C=C/C(=O)/C=C/c2ccc(C#N)cc2)C(C)(C)CCC1,45.6,23.4,22.2,11.9,13.2,–
COc1ccc(/C=C/C(=O)/C=C/C2=C(C)CCCC2(C)C)cc1OC,72.4,29.2,85,30.2,35.6,–
CC1=C(/C=C/C(=O)/C=C/c2ccccc2C)C(C)(C)CCC1,41,63.2,> 100,44.1,44.6,–
CC1=C(/C=C/C(=O)/C=C/c2ccccc2)C(C)(C)CCC1,62.2,20.4,70.2,12.4,10.6,–
CC1=C(/C=C/C(=O)/C=C/c2ccoc2)C(C)(C)CCC1,> 100,56.8,88.4,50.3,100,–
O=c1[nH]cc(F)c(=O)[nH]1 [FLUOROURACIL],0.5,1.3,–,–,–,–
CC(=O)O[C@H]1C(=O)[C@@]2(C)[C@H]([C@H](OC(=O)c3ccccc3)[C@]3(O)C[C@H](OC(=O)[C@H](O)[C@@H](NC(=O)c4ccccc4)c4ccccc4)C(C)=C1C3(C)C)[C@]1(OC(C)=O)CO[C@@H]1C[C@@H]2O [PACLITAXEL],–,–,–,1.5,0.5,–
CC1=C(/C=C/C(=O)/C=C/C=C/c2ccccc2)C(C)(C)CCC1,> 100,23.4,> 100,35.4,46.7,–
CC1=C(/C=C/C(=O)/C=C/c2ccccc2Cl)C(C)(C)CCC1,54.2,13.7,21.8,11.3,54.6,–
